Reference: ChEMBL document CHEMBL1136322, “QSAR study on antibacterial activity of sulphonamides and derived Mannich bases” (Bioorg Med Chem Lett, 2003)

Legend:
Escherichia coli [1] = test: Antibacterial activity against Escherichia coli at a concentration of 40 ug/mL; format: functional
[2] = Toxic effect after oral administration (6400 mg/kg) was determined in mice; No effect; format: toxicity, organism-based; conditions: mouse, in vivo
Escherichia coli [3] = test: Antibacterial activity against Escherichia coli at a concentration of 10 ug/mL; format: functional
Bacillus subtilis [4] = test: Antibacterial activity against Bacillus subtilis at a concentration of 80 ug/mL; format: functional
Bacillus subtilis [5] = test: Antibacterial activity against Bacillus subtilis at a concentration of 160 ug/mL; format: functional
Bacillus subtilis [6] = test: Antibacterial activity against Bacillus subtilis at a concentration of 40 ug/mL; format: functional
Bacillus subtilis [7] = test: Antibacterial activity against Bacillus subtilis at a concentration of 120 ug/mL; format: functional
[8] = Lethal dose after intraperitoneal administration in mice; format: toxicity; conditions: mouse, in vivo, ip
Escherichia coli [9] = test: Antibacterial activity against Escherichia coli at a concentration of 80 ug/mL; format: functional
Escherichia coli [10] = test: Antibacterial activity against Escherichia coli at a concentration of 20 ug/mL; format: functional
Klebsiella pneumoniae [11] = test: Antibacterial activity against Klebsiella pneumoniae at a concentration of 80 ug/mL; format: functional
Klebsiella pneumoniae [12] = test: Antibacterial activity against Klebsiella pneumoniae at a concentration of 120 ug/mL; format: functional
Klebsiella pneumoniae [13] = test: Antibacterial activity against Klebsiella pneumoniae at a concentration of 160 ug/mL; format: functional
Klebsiella pneumoniae [14] = test: Antibacterial activity against Klebsiella pneumoniae at a concentration of 40 ug/mL; format: functional

SMILES	Zone of inhibition (Escherichia coli [1]) [mm]	Toxic effect [2]	Zone of inhibition (Escherichia coli [3]) [mm]	Zone of inhibition (Bacillus subtilis [4]) [mm]	Zone of inhibition (Bacillus subtilis [5]) [mm]	Zone of inhibition (Bacillus subtilis [6]) [mm]	Zone of inhibition (Bacillus subtilis [7]) [mm]	Lethal dose [8] [mg/kg]	Zone of inhibition (Escherichia coli [9]) [mm]	Zone of inhibition (Escherichia coli [10]) [mm]	Zone of inhibition (Klebsiella pneumoniae [11]) [mm]	Zone of inhibition (Klebsiella pneumoniae [12]) [mm]	Zone of inhibition (Klebsiella pneumoniae [13]) [mm]	Zone of inhibition (Klebsiella pneumoniae [14]) [mm]
Cc1cc(C)nc(NS(=O)(=O)c2ccc(NCNC(=O)c3ccc(NC(=O)c4cccnc4)cc3)cc2)n1	13.7	Not Active	11.4	11.2	17.6	6	13.6	1000	14.1	13.9				
Cc1cc(NS(=O)(=O)c2ccc(NCNC(=O)c3ccc(NC(=O)c4cccnc4)cc3)cc2)no1	11.8	Not Active	11.3	18.6	23.5	14.1	20.7	1000	13.4	11.5	14.7	14.4	13.7	12.5
O=C(NCNc1ccc(S(=O)(=O)Nc2ncccn2)cc1)c1ccc(NC(=O)c2cccnc2)cc1	13.7	Not Active	10.4	20.4	25.3	15.4	22.9	1000	18.7	10.6	18.3	19.2	20.9	18.9
N=C(N)NS(=O)(=O)c1ccc(NCNC(=O)c2ccc(NC(=O)c3cccnc3)cc2)cc1	11	Not Active	10.9					1000	11.7	11.4				
Cc1nnc(NS(=O)(=O)c2ccc(NCNC(=O)c3ccc(NC(=O)c4cccnc4)cc3)cc2)s1	14.4	Not Active	12.4					1000	15	14.9				
NS(=O)(=O)c1ccc(NCNC(=O)c2ccc(NC(=O)c3cccnc3)cc2)cc1	13.2		13.1						13.2	12.7	12	13.7	21.4	11.1
Nc1ccc(S(=O)(=O)Nc2ncccn2)cc1 [SULFADIAZINE]	22.2		9.7	27.2	26.9	20.8	26.3		25.5	17.2	29.2	29.5	25.6	27
Cc1cc(C)nc(NS(=O)(=O)c2ccc(N)cc2)n1 [SULFAMETHAZINE]	18.8		15.1	19.9	22	15.4	21.7		18.5	16.9				
Cc1nnc(NS(=O)(=O)c2ccc(N)cc2)s1 [SULFAMETHIZOLE]	22.2		16.2						25.5	17.4				
Cc1cc(NS(=O)(=O)c2ccc(N)cc2)no1 [SULFAMETHOXAZOLE]	23.2		19.6	25.4	27.9	22.8	27.4		23.6	22.9	22.4	26.4	6	11.6
Nc1ccc(S(N)(=O)=O)cc1 [SULFANILAMIDE]	22.8		20.4						25.4	22.3				
